Reference: the supplement of paper PMC10307832

Assays:
IU1-47 + Foretinib = compound: CC1=CC(=C(N1C2=CC=C(C=C2)Cl)C)C(=O)CN3CCCCC3 [IU1-47] + COc1cc2c(Oc3ccc(NC(=O)C4(C(=O)Nc5ccc(F)cc5)CC4)cc3F)ccnc2cc1OCCCN1CCOCC1 [Foretinib] (partner 0.25 µM); test: relative viability (nuclei count vs DMSO), 5 days (fraction); higher = more cells survive
Method in brief: (§1)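 Lung cancer cell lines in 1536-well plates were dosed by pin tool the day after seeding, either with one drug alone or with a fixed anchor-drug dose plus five library-drug doses (not always all listed) in √10 steps. After 5 days, cells were fixed and their nuclei stained in one step (final 0.05% Triton X-100, 1% formaldehyde, 1 ug/ml Hoechst), then counted on 4× images. Relative viability is the nuclei count in treated wells divided by that in vehicle wells. Values are medians of duplicate plates.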

FG-4592 + Tozasertib = compound: Cc1nc(C(=O)NCC(=O)O)c(O)c2ccc(Oc3ccccc3)cc12 [FG-4592] + Cc1cc(Nc2cc(N3CCN(C)CC3)nc(Sc3ccc(NC(=O)C4CC4)cc3)n2)n[nH]1 [Tozasertib] (partner 0.1 µM); test: as above
Method in brief: as §1

**Q.** With NCI-H2228 as the cell line, how does the relative viability (IU1-47 + Foretinib; first compound 0.08 µM) read?
**A.** Its relative viability is 1.14.

**Q.** And the relative viability (IU1-47 + Foretinib; first compound 0.253 µM)?
**A.** The relative viability was 1.05.

**Q.** What about the relative viability (IU1-47 + Foretinib; first compound 0.8 µM) of the same cell line?
**A.** The relative viability was 0.975.

**Q.** And the relative viability (IU1-47 + Foretinib; first compound 2.53 µM)?
**A.** Its relative viability is 0.827.

**Q.** What about the relative viability (IU1-47 + Foretinib; first compound 8 µM) of the same cell line?
**A.** Its relative viability is 0.75.

**Q.** And the relative viability (FG-4592 + Tozasertib; first compound 0.08 µM)?
**A.** Its relative viability is 0.276.

**Q.** And the relative viability (FG-4592 + Tozasertib; first compound 0.253 µM)?
**A.** Its relative viability is 0.262.

**Q.** And the relative viability (FG-4592 + Tozasertib; first compound 0.8 µM)?
**A.** The relative viability was 0.226.

**Q.** What about the relative viability (FG-4592 + Tozasertib; first compound 2.53 µM) of the same cell line?
**A.** Its relative viability is 0.288.

**Q.** What about the relative viability (FG-4592 + Tozasertib; first compound 8 µM) of the same cell line?
**A.** Its relative viability is 0.225.

**Q.** What does the source list for HOP-62?
**A.** relative viability (IU1-47 + Foretinib; first compound 0.08 µM): 1.17; relative viability (IU1-47 + Foretinib; first compound 0.253 µM): 1.12; relative viability (IU1-47 + Foretinib; first compound 0.8 µM): 1.04; relative viability (IU1-47 + Foretinib; first compound 2.53 µM): 1.11; relative viability (IU1-47 + Foretinib; first compound 8 µM): 1.13; relative viability (FG-4592 + Tozasertib; first compound 0.08 µM): 0.406; relative viability (FG-4592 + Tozasertib; first compound 0.253 µM): 0.393; relative viability (FG-4592 + Tozasertib; first compound 0.8 µM): 0.381; relative viability (FG-4592 + Tozasertib; first compound 2.53 µM): 0.367; relative viability (FG-4592 + Tozasertib; first compound 8 µM): 0.41

**Q.** What does the source list for HARA?
**A.** relative viability (IU1-47 + Foretinib; first compound 0.08 µM): 1.02; relative viability (IU1-47 + Foretinib; first compound 0.253 µM): 1.1; relative viability (IU1-47 + Foretinib; first compound 0.8 µM): 1.04; relative viability (IU1-47 + Foretinib; first compound 8 µM): 0.742; relative viability (FG-4592 + Tozasertib; first compound 0.08 µM): 0.12; relative viability (FG-4592 + Tozasertib; first compound 0.253 µM): 0.138; relative viability (FG-4592 + Tozasertib; first compound 0.8 µM): 0.0931; relative viability (FG-4592 + Tozasertib; first compound 2.53 µM): 0.115; relative viability (FG-4592 + Tozasertib; first compound 8 µM): 0.104

**Q.** NCI-H838 was tested. Which relative viability (IU1-47 + Foretinib; first compound 0.08 µM) did it give?
**A.** The relative viability was 1.12.

**Q.** And the relative viability (IU1-47 + Foretinib; first compound 0.253 µM)?
**A.** Its relative viability is 1.07.

**Q.** What about the relative viability (IU1-47 + Foretinib; first compound 0.8 µM) of the same cell line?
**A.** The relative viability was 0.981.

**Q.** And the relative viability (IU1-47 + Foretinib; first compound 2.53 µM)?
**A.** The relative viability was 1.06.

**Q.** And the relative viability (IU1-47 + Foretinib; first compound 8 µM)?
**A.** Its relative viability is 1.11.

**Q.** What about the relative viability (FG-4592 + Tozasertib; first compound 0.08 µM) of the same cell line?
**A.** Its relative viability is 0.296.

**Q.** And the relative viability (FG-4592 + Tozasertib; first compound 0.253 µM)?
**A.** The relative viability was 0.246.

**Q.** What about the relative viability (FG-4592 + Tozasertib; first compound 0.8 µM) of the same cell line?
**A.** Its relative viability is 0.279.

**Q.** And the relative viability (FG-4592 + Tozasertib; first compound 2.53 µM)?
**A.** The relative viability was 0.242.

**Q.** What about the relative viability (FG-4592 + Tozasertib; first compound 8 µM) of the same cell line?
**A.** The relative viability was 0.26.

**Q.** For NCI-H1755, which relative viability (IU1-47 + Foretinib; first compound 0.08 µM) is on record?
**A.** The relative viability was 0.932.

**Q.** And the relative viability (IU1-47 + Foretinib; first compound 0.253 µM)?
**A.** Its relative viability is 0.926.

**Q.** And the relative viability (IU1-47 + Foretinib; first compound 0.8 µM)?
**A.** The relative viability was 0.961.

**Q.** What about the relative viability (IU1-47 + Foretinib; first compound 2.53 µM) of the same cell line?
**A.** The relative viability was 0.973.

**Q.** What about the relative viability (IU1-47 + Foretinib; first compound 8 µM) of the same cell line?
**A.** The relative viability was 0.934.

**Q.** And the relative viability (FG-4592 + Tozasertib; first compound 0.08 µM)?
**A.** Its relative viability is 0.56.

**Q.** What about the relative viability (FG-4592 + Tozasertib; first compound 0.253 µM) of the same cell line?
**A.** Its relative viability is 0.51.

**Q.** What about the relative viability (FG-4592 + Tozasertib; first compound 0.8 µM) of the same cell line?
**A.** Its relative viability is 0.568.

**Q.** And the relative viability (FG-4592 + Tozasertib; first compound 2.53 µM)?
**A.** Its relative viability is 0.678.

**Q.** And the relative viability (FG-4592 + Tozasertib; first compound 8 µM)?
**A.** The relative viability was 0.655.

**Q.** For HCC-78, which relative viability (IU1-47 + Foretinib; first compound 0.08 µM) is on record?
**A.** The relative viability was 0.608.

**Q.** And the relative viability (IU1-47 + Foretinib; first compound 0.253 µM)?
**A.** Its relative viability is 0.57.

**Q.** And the relative viability (IU1-47 + Foretinib; first compound 0.8 µM)?
**A.** Its relative viability is 0.615.

**Q.** What about the relative viability (IU1-47 + Foretinib; first compound 2.53 µM) of the same cell line?
**A.** Its relative viability is 0.551.

**Q.** And the relative viability (IU1-47 + Foretinib; first compound 8 µM)?
**A.** Its relative viability is 0.606.

**Q.** What about the relative viability (FG-4592 + Tozasertib; first compound 0.08 µM) of the same cell line?
**A.** The relative viability was 0.402.

**Q.** And the relative viability (FG-4592 + Tozasertib; first compound 0.253 µM)?
**A.** Its relative viability is 0.481.

**Q.** What about the relative viability (FG-4592 + Tozasertib; first compound 0.8 µM) of the same cell line?
**A.** Its relative viability is 0.491.

**Q.** What about the relative viability (FG-4592 + Tozasertib; first compound 2.53 µM) of the same cell line?
**A.** The relative viability was 0.486.

**Q.** And the relative viability (FG-4592 + Tozasertib; first compound 8 µM)?
**A.** Its relative viability is 0.414.

**Q.** What does the source list for IA-LM?
**A.** relative viability (IU1-47 + Foretinib; first compound 0.08 µM): 1.02; relative viability (IU1-47 + Foretinib; first compound 0.253 µM): 1.12; relative viability (IU1-47 + Foretinib; first compound 0.8 µM): 0.936; relative viability (IU1-47 + Foretinib; first compound 2.53 µM): 1.17; relative viability (IU1-47 + Foretinib; first compound 8 µM): 1

**Q.** Which results are given for NCI-H322M?
**A.** relative viability (IU1-47 + Foretinib; first compound 0.08 µM): 1.07; relative viability (IU1-47 + Foretinib; first compound 0.253 µM): 1.03; relative viability (IU1-47 + Foretinib; first compound 0.8 µM): 0.882; relative viability (IU1-47 + Foretinib; first compound 2.53 µM): 0.965; relative viability (IU1-47 + Foretinib; first compound 8 µM): 1.03; relative viability (FG-4592 + Tozasertib; first compound 0.08 µM): 0.469; relative viability (FG-4592 + Tozasertib; first compound 0.253 µM): 0.46; relative viability (FG-4592 + Tozasertib; first compound 0.8 µM): 0.442; relative viability (FG-4592 + Tozasertib; first compound 2.53 µM): 0.518; relative viability (FG-4592 + Tozasertib; first compound 8 µM): 0.396
